In patent US9187471B2, “Pyrido [4,3-b] indole and pyrido [3,4-b] indole derivatives and methods of use” (Medivation Technologies, Inc., priority 2010, dated 2015) one finds inhibition data, which are given here for 15 compounds.

SMILES strings stand for the structures.

The target of experiment [1] is T1, human recombinant serotonin (5-Hydroxytryptamine) 5-HT5A receptor (Homo sapiens, UniProt P47898).
T1 construct: expressed in transfected cells; host or cells: CHO-K1
Briefly: Serotonin 5-HT5A radioligand binding ([3H]LSD). The note with it: compound at 0.1 μM; read-out: Inhibition of ligand binding, Serotonin 5-HT5A (percent inhibition of specific binding). As for the experimental part:
Compounds of the invention were incubated with 1.7 nM [^3H]Lysergic acid diethylamide (LSD) for 60 min at 37° C. […] Receptor proteins were filtered and washed, the filters were counted to determine [^3H]LSD specifically bound.

For experiment [2], the target named is T2, human recombinant adrenergic α2C receptor (Homo sapiens, UniProt P18825).
T2 construct: expressed in transfected cells; host or cells: insect Sf9 cells
T2 sequence (P18825 1-462): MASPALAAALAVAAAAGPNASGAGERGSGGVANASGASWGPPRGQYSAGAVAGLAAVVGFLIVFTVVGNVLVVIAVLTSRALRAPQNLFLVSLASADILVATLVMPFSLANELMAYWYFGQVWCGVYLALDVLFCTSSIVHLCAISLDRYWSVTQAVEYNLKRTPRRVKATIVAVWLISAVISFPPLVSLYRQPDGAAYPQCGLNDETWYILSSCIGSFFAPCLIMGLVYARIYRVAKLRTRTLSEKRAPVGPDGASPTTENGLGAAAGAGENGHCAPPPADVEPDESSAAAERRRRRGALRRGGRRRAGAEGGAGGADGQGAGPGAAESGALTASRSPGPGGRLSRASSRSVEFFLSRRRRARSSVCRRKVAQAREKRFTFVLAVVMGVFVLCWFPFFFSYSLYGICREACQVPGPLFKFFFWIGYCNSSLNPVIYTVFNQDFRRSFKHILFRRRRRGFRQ
Kind of experiment: Adrenergic α2C radioligand binding ([3H]MK-912). The settings on record: read-out: Adrenergic (0.1 μM) a2C, percent inhibition of specific binding; compound at 0.1 μM; 1 nM [3H]MK-912. In a few lines:
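Membranes from Sf9 cells expressing the human receptor, in 50 mM Tris-HCl pH 7.4 with 12.5 mM MgCl2 and 2 mM EDTA, incubated with compound and 1 nM [3H]MK-912 for 60 min at 25 °C. Non-specific binding defined with 10 μM WB-4101. Filter-bound radioactivity counted; percent inhibition of specific binding reported.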

In experiment [3] the target is T3, human recombinant serotonin (5-Hydroxytryptamine) 5-HT2C receptor (Homo sapiens, UniProt P28335).
T3 construct: expressed in transfected cells; host or cells: CHO-K1
T3 sequence (P28335 33-458): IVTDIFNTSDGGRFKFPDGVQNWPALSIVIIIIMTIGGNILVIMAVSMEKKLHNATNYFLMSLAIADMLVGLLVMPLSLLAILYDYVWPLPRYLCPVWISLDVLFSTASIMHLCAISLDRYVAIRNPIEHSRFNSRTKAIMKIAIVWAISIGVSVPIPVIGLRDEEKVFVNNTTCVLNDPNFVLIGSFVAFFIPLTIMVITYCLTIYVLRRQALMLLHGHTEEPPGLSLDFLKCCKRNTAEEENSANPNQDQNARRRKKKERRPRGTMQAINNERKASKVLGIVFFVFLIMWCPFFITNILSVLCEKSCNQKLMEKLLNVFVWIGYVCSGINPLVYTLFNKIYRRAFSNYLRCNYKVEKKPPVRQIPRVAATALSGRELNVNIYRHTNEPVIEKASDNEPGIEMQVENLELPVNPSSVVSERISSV
Kind of experiment: Serotonin 5-HT2C radioligand binding ([3H]Mesulergine). The note with it: compound at 0.1 μM; read-out: Inhibition of ligand binding, Serotonin 5-HT2C (percent inhibition of specific binding). Here is the method:
Compounds of the invention were incubated with 1 nM [^3H]Mesulergine for 60 min at 25° C. Non-specific binding was estimated in the presence of 1 μM Mianserin. Receptor proteins were filtered and washed, the filters were then counted to determine [^3H]Mesulergine specifically bound.

The target of experiment [4] is T4, human recombinant serotonin (5-Hydroxytryptamine) 5-HT7 receptor (Homo sapiens, UniProt P34969).
T4 construct: expressed in transfected cells; host or cells: CHO
Briefly: Serotonin 5-HT7 radioligand binding ([3H]LSD). The note with it: compound at 0.1 μM; read-out: Inhibition of ligand binding, Serotonin 5-HT7 (percent inhibition of specific binding). Here is the method:
Lysergic acid diethylamide (LSD) for 120 min. at 25° C. […] Receptor proteins were filtered and washed, the filters were then counted to determine [^3H]LSD specifically bound.

Experiment [5] addresses T5, rat adrenergic α1A receptor (Rattus norvegicus, UniProt P43140).
T5 construct: rat adrenergic α1A receptor obtained from Wistar Rat submaxillary glands; from tissue; host or cells: Wistar rat submaxillary glands
T5 sequence (P43140 1-466): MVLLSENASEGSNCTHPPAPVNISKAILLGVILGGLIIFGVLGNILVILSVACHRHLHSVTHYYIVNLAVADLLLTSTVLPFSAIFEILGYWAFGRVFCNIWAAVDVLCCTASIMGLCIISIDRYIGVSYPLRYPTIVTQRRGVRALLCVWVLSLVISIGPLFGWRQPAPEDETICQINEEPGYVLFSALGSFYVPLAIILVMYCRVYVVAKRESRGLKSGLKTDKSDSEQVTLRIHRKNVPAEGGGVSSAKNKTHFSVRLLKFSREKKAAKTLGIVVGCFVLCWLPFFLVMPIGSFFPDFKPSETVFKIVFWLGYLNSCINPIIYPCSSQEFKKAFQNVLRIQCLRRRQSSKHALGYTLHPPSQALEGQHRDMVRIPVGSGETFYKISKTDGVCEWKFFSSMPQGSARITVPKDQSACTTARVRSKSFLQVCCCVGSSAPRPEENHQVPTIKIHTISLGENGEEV
Kind of experiment: Adrenergic α1A radioligand binding ([3H]Prazosin). The settings on record: read-out: Adrenergic (0.1 μM) a1A, percent inhibition of specific binding; compound at 0.1 μM; 0.25 nM [3H]Prazosin. Summed up:
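Wistar rat submaxillary gland receptor in 50 mM Tris-HCl pH 7.4 with 0.5 mM EDTA, incubated with compound and 0.25 nM [3H]Prazosin for 60 min at 25 °C.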

T1 sequence (P47898 whole entry): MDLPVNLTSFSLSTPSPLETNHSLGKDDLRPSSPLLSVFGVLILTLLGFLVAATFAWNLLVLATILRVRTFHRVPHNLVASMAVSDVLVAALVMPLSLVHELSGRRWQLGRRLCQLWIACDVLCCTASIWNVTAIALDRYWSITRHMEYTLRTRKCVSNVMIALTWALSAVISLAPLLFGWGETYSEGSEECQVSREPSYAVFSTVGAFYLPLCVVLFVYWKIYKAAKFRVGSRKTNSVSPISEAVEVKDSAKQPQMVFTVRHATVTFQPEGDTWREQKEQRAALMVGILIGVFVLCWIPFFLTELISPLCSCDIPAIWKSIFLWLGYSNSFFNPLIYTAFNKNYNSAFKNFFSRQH
T4 sequence (P34969 whole entry): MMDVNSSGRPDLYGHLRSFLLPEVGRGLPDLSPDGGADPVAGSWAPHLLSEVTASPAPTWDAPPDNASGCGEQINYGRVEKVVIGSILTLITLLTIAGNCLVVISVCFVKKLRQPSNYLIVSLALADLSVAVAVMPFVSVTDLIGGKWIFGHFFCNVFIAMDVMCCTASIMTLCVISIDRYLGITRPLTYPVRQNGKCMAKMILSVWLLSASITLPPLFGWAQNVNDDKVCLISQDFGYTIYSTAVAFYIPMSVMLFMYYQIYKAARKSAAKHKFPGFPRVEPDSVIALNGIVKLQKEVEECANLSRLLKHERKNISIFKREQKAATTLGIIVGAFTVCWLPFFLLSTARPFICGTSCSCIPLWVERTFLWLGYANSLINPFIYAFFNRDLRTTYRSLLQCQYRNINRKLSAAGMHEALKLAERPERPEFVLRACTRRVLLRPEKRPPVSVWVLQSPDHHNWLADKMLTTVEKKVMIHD

For orientation: inhibition means the drop in the measured response relative to a control, in per cent. As to `Cc1csc(-c2ccc(-n3c4c(c5cc(C)ccc53)CN(C)CC4)nc2)c1` [Compound No. 144, 2,8-dimethyl-5-(5-(4-methylthiophen-2-yl)pyridin-2-yl)-2,3,4,5-tetrahydro-1H-pyrido[4,3-b]indole], the inhibition at 0.1 µM stood at 38% in experiment [1]; 49% in experiment [2]; 100% in experiment [3]; 37% in experiment [4]; 27% in experiment [5].
On to `Cc1ccc2c(c1)c1c(n2-c2cccc(-c3cn[nH]c3)c2)CCN(C)C1` [Compound No. 70, 5-(3-(1H-pyrazol-4-yl)phenyl)-2,8-dimethyl-2,3,4,5-tetrahydro-1H-pyrido[4,3-b]indole], for which the inhibition at 0.1 µM in experiment [1] came to 43%; in experiment [2] it was 8%; in experiment [3], 81%; in experiment [4], 50%; in experiment [5] it was 5%.
With `Cc1ccc2c(c1)c1c(n2-c2cccc(-c3sccc3C)c2)CCN(C)C1` [Compound 43, 2,8-dimethyl-5-(3-(3-methylthiophen-2-yl)phenyl)-2,3,4,5-tetrahydro-1H-pyrido[4,3-b]indole], the inhibition at 0.1 µM in experiment [1] was 39%; in experiment [2] it was -16%; in experiment [3] it was 8%; in experiment [4], 33%; in experiment [5] it was 13%.
As for `Cc1ccc2c(c1)c1c(n2-c2cccc(-c3cnn(C)c3)c2)CCN(C)C1` [Compound 46, 2,8-dimethyl-5-(3-(1-methyl-1H-pyrazol-4-yl)phenyl)-2,3,4,5-tetrahydro-1H-pyrido[4,3-b]indole], the inhibition at 0.1 µM in experiment [1] is 32%; in experiment [2], 6%; in experiment [3], 41%; in experiment [4], 51%; in experiment [5], 16%.
With `Cc1ccc2c(c1)c1c(n2-c2ccccc2-c2c(C)noc2C)CCN(C)C1` [Compound No. 82, 4-(2-(2,8-dimethyl-3,4-dihydro-1H-pyrido[4,3-b]indol-5(2H)-yl)phenyl)-3,5-dimethylisoxazole], the inhibition at 0.1 µM in experiment [1] is 9%; in experiment [2], 7%; in experiment [3], 68%; in experiment [4], 24%; in experiment [5], 3%.
Taken in the same sequence, the figures for `Cc1ccc2c(c1)c1c(n2-c2cccc(-c3c(C)noc3C)c2)CCN(C)C1` [Compound No. 65, 4-(3-(2,8-dimethyl-3,4-dihydro-1H-pyrido[4,3-b]indol-5(2H)-yl)phenyl)-3,5-dimethylisoxazole] were 63%, 8%, 57%, 46% and 1%.
Regarding `Cc1ccc2c(c1)c1c(n2-c2cscc2-c2ccc(S(C)(=O)=O)cc2)CCN(C)C1` [Compound No. 76], the inhibition at 0.1 µM in experiment [1] was 90%; in experiment [2], 79%; in experiment [3], 24%; in experiment [4] it was 85%; in experiment [5], 82%.
Take `Cc1ccc2c(c1)c1c(n2-c2cscc2-c2ccc3cnccc3c2)CCN(C)C1` [Compound No. 68]: the inhibition at 0.1 µM in experiment [1] came out at 78%; in experiment [2] it was 29%; in experiment [3], 10%; in experiment [4], 99%; in experiment [5], 71%.
Consider `Cc1ccc2c(c1)c1c(n2-c2ccc(-c3cccnc3)cn2)CCN(C)C1` [Compound No. 133, 5-(3,3′-bipyridin-6-yl)-2,8-dimethyl-2,3,4,5-tetrahydro-1H-pyrido[4,3-b]indole], for which the inhibition at 0.1 µM in experiment [1] is 6%; in experiment [2], 0%; in experiment [3], 92%; in experiment [4], 21%; in experiment [5], 21%.
For the compound `Cc1ccc2c(c1)c1c(n2-c2cccc(-c3cnc(N(C)C)nc3)c2)CCN(C)C1` [Compound 42, 5-(3-(2,8-dimethyl-3,4-dihydro-1H-pyrido[4,3-b]indol-5(2H)-yl)phenyl)-N,N-dimethylpyrimidin-2-amine], the inhibition at 0.1 µM is 11% in experiment [1]; -11% in experiment [2]; 32% in experiment [3]; 31% in experiment [4]; 9% in experiment [5].
For the compound `CC(=O)Nc1ccc(-c2cccc(-n3c4c(c5cc(C)ccc53)CN(C)CC4)c2)cn1` [Compound 45, N-(5-(3-(2,8-dimethyl-3,4-dihydro-1H-pyrido[4,3-b]indol-5(2H)-yl)phenyl)pyridin-2-yl)acetamide], the inhibition at 0.1 µM in experiment [1] is 37%; in experiment [2], 7%; in experiment [3], 26%; in experiment [4], 51%; in experiment [5], 13%.
For `Cc1ccc2c(c1)c1c(n2-c2ccc(-c3cccc4ccccc34)cn2)CCN(C)C1` [Compound No. 141, 2,8-dimethyl-5-(5-(naphthalen-1-yl)pyridin-2-yl)-2,3,4,5-tetrahydro-1H-pyrido[4,3-b]indole], the inhibition at 0.1 µM in experiment [1] was 87%; in experiment [2], 16%; in experiment [3], 92%; in experiment [4], 33%; in experiment [5] it was 33%.
`Cc1ccc2c(c1)c1c(n2-c2cscc2-c2ccc3c(ccn3C)c2)CCN(C)C1` [Compound 33]: the inhibition at 0.1 µM in experiment [1] stood at 93%; in experiment [2] it was 87%; in experiment [3], 49%; in experiment [4], 94%; in experiment [5] it was 57%.
Take `Cc1ccc2c(c1)c1c(n2-c2cccc(-c3ccc(O)nc3)c2)CCN(C)C1` [Compound 52, 5-(3-(2,8-dimethyl-3,4-dihydro-1H-pyrido[4,3-b]indol-5(2H)-yl)phenyl)pyridin-2-ol]: the inhibition at 0.1 µM in experiment [1] is 55%; in experiment [2] it was 2%; in experiment [3] it was 19%; in experiment [4], 14%; in experiment [5], -1%.
As to `Cc1ccc2c(c1)c1c(n2-c2cscc2-c2c(C)noc2C)CCN(C)C1` [Compound 62], the inhibition at 0.1 µM was 54% in experiment [1]; 33% in experiment [2]; 56% in experiment [3]; 48% in experiment [4]; 9% in experiment [5].
